In ChEMBL document CHEMBL3885881, “DrugMatrix”:

Organism: Rattus norvegicus
Assay: DrugMatrix - Regimen: Daily Repeat
Type: toxicity, organism-based, Sprague-Dawley
Set-up: regimen Daily Repeat, gender Male, age 6-8 weeks
Details: in vivo, iv, vehicle 100 % SALINE; for ABSOLUTE BASOPHIL / ABSOLUTE EOSINOPHIL / ABSOLUTE LYMPHOCYTE / ABSOLUTE MONOCYTE / ABSOLUTE SEGMENTED NEUTROPHIL / BASOPHIL / EOSINOPHIL / ERYTHROCYTE COUNT / HEMATOCRIT / HEMOGLOBIN / LEUKOCYTE COUNT / LYMPHOCYTE / MEAN CORPUSCULAR HEMOGLOBIN / MEAN CORPUSCULAR HEMOGLOBIN CONCENTRATION / MEAN CORPUSCULAR VOLUME / MONOCYTE / NEUTROPHIL / NUCLEATED RED BLOOD CELLS / PLATELET COUNT: tissue Blood; for ALANINE AMINOTRANSFERASE / ALBUMIN / ALKALINE PHOSPHATASE / ASPARTATE AMINOTRANSFERASE / BLOOD UREA NITROGEN / CARBON DIOXIDE / CHLORIDE / CHOLESTEROL / CREATINE PHOSPHOKINASE / CREATININE / GLUCOSE / LACTATE DEHYDROGENASE / LIPASE / PHOSPHORUS / POTASSIUM / SODIUM / TOTAL BILIRUBIN / TOTAL PROTEIN / URIC ACID: tissue Plasma
[1] = 23 mg/kg, 120 h, dose level High, time 5 day
[2] = […], 72 h, dose 2.3 mg/Kg, dose level Low, time 3 day
[3] = […], 120 h, dose 2.3 mg/Kg, dose level Low, time 5 day

COC(=O)C[C@](O)(CCC(C)(C)O)C(=O)O[C@@H]1C(OC)=C[C@]23CCCN2CCc2cc4c(cc2[C@H]13)OCO4 [HARRINGTONINE]
ABSOLUTE BASOPHIL [1]: 0 CELLS/uL | ABSOLUTE EOSINOPHIL [1]: 0 CELLS/uL | ABSOLUTE LYMPHOCYTE [1]: 5612 CELLS/uL | ABSOLUTE MONOCYTE [1]: 134.67 CELLS/uL | ABSOLUTE SEGMENTED NEUTROPHIL [1]: 53.33 CELLS/uL | BASOPHIL [1]: 0% | EOSINOPHIL [1]: 0% | ERYTHROCYTE COUNT [1]: 5.85 x10E6/uL | HEMATOCRIT [1]: 36.17% | HEMOGLOBIN [1]: 13.93 G/DL | LEUKOCYTE COUNT [1]: 5.8 x10E3/uL | LYMPHOCYTE [1]: 96.67% | MEAN CORPUSCULAR HEMOGLOBIN [1]: 23.83 pg | MEAN CORPUSCULAR HEMOGLOBIN CONCENTRATION [1]: 38.53 G/DL | MEAN CORPUSCULAR VOLUME [1]: 61.87 fL | MONOCYTE [1]: 2.33% | NEUTROPHIL [1]: 1% | NUCLEATED RED BLOOD CELLS [1]: 0 /100WBC | PLATELET COUNT [1]: 414 x10E3/uL | ALANINE AMINOTRANSFERASE [1]: 83 u/L | ALBUMIN [1]: 3.47 G/DL | ALKALINE PHOSPHATASE [1]: 214 u/L | ASPARTATE AMINOTRANSFERASE [1]: 226.33 u/L | BLOOD UREA NITROGEN [1]: 15.67 mg/dL | CARBON DIOXIDE [1]: 24 mmol/L | CHLORIDE [1]: 100.33 MEQ/L | CHOLESTEROL [1]: 71 mg/dL | CREATINE PHOSPHOKINASE [1]: 222 u/L | CREATININE [1]: 0.27 mg/dL | GLUCOSE [1]: 151.67 mg/dL | LACTATE DEHYDROGENASE [1]: 292.33 u/L | LIPASE [1]: 7.33 u/L | PHOSPHORUS [1]: 9.13 mg/dL | POTASSIUM [1]: 6.23 MEQ/L | SODIUM [1]: 143.4 MEQ/L | TOTAL BILIRUBIN [1]: 0.23 mg/dL | TOTAL PROTEIN [1]: 5.73 G/DL | URIC ACID [1]: 1.2 mg/dL | ABSOLUTE BASOPHIL [2]: 0 CELLS/uL | ABSOLUTE EOSINOPHIL [2]: 41.67 CELLS/uL | ABSOLUTE LYMPHOCYTE [2]: 11224.33 CELLS/uL | ABSOLUTE MONOCYTE [2]: 81.33 CELLS/uL | ABSOLUTE SEGMENTED NEUTROPHIL [2]: 586 CELLS/uL | BASOPHIL [2]: 0% | EOSINOPHIL [2]: 0.33% | ERYTHROCYTE COUNT [2]: 5.44 x10E6/uL | HEMATOCRIT [2]: 34.9% | HEMOGLOBIN [2]: 13.83 G/DL | LEUKOCYTE COUNT [2]: 11.93 x10E3/uL | LYMPHOCYTE [2]: 94% | MEAN CORPUSCULAR HEMOGLOBIN [2]: 25.47 pg | MEAN CORPUSCULAR HEMOGLOBIN CONCENTRATION [2]: 39.63 G/DL | MEAN CORPUSCULAR VOLUME [2]: 64.17 fL | MONOCYTE [2]: 0.67% | NEUTROPHIL [2]: 5% | NUCLEATED RED BLOOD CELLS [2]: 0 /100WBC | PLATELET COUNT [2]: 1133.33 x10E3/uL | ALANINE AMINOTRANSFERASE [2]: 48.67 u/L | ALBUMIN [2]: 4.13 G/DL | ALKALINE PHOSPHATASE [2]: 303.67 u/L | ASPARTATE AMINOTRANSFERASE [2]: 64.33 u/L | BLOOD UREA NITROGEN [2]: 15.67 mg/dL | CARBON DIOXIDE [2]: 31.67 mmol/L | CHLORIDE [2]: 101 MEQ/L | CHOLESTEROL [2]: 51 mg/dL | CREATINE PHOSPHOKINASE [2]: 184 u/L | CREATININE [2]: 0.17 mg/dL | GLUCOSE [2]: 163 mg/dL | LACTATE DEHYDROGENASE [2]: 69 u/L | LIPASE [2]: 8.67 u/L | PHOSPHORUS [2]: 12.37 mg/dL | POTASSIUM [2]: 6.49 MEQ/L | SODIUM [2]: 146.83 MEQ/L | TOTAL BILIRUBIN [2]: 0.2 mg/dL | TOTAL PROTEIN [2]: 5.5 G/DL | URIC ACID [2]: 2 mg/dL | ABSOLUTE BASOPHIL [3]: 0 CELLS/uL | ABSOLUTE EOSINOPHIL [3]: 0 CELLS/uL | ABSOLUTE LYMPHOCYTE [3]: 10385.33 CELLS/uL | ABSOLUTE MONOCYTE [3]: 95.33 CELLS/uL | ABSOLUTE SEGMENTED NEUTROPHIL [3]: 1152.67 CELLS/uL | BASOPHIL [3]: 0% | EOSINOPHIL [3]: 0% | ERYTHROCYTE COUNT [3]: 5.81 x10E6/uL | HEMATOCRIT [3]: 35.2% | HEMOGLOBIN [3]: 13.83 G/DL | LEUKOCYTE COUNT [3]: 11.63 x10E3/uL | LYMPHOCYTE [3]: 90.67% | MEAN CORPUSCULAR HEMOGLOBIN [3]: 23.83 pg | MEAN CORPUSCULAR HEMOGLOBIN CONCENTRATION [3]: 39.3 G/DL | MEAN CORPUSCULAR VOLUME [3]: 60.6 fL | MONOCYTE [3]: 0.67% | NEUTROPHIL [3]: 8.67% | NUCLEATED RED BLOOD CELLS [3]: 0.33 /100WBC | PLATELET COUNT [3]: 1139 x10E3/uL | ALANINE AMINOTRANSFERASE [3]: 52 u/L | ALBUMIN [3]: 4.03 G/DL | ALKALINE PHOSPHATASE [3]: 408.33 u/L | ASPARTATE AMINOTRANSFERASE [3]: 89.67 u/L | BLOOD UREA NITROGEN [3]: 18.67 mg/dL | CARBON DIOXIDE [3]: 25 mmol/L | CHLORIDE [3]: 102 MEQ/L | CHOLESTEROL [3]: 60 mg/dL | CREATINE PHOSPHOKINASE [3]: 576 u/L | CREATININE [3]: 0.16 mg/dL | GLUCOSE [3]: 170.33 mg/dL | LACTATE DEHYDROGENASE [3]: 158.67 u/L | LIPASE [3]: 8.67 u/L | PHOSPHORUS [3]: 12.3 mg/dL | POTASSIUM [3]: 6.27 MEQ/L | SODIUM [3]: 145.13 MEQ/L | TOTAL BILIRUBIN [3]: 0.2 mg/dL | TOTAL PROTEIN [3]: 5.73 G/DL | URIC ACID [3]: 1.6 mg/dL
